This passage reports IC50 results from patent US6881741B2 (ViroChem Pharma Inc., priority 2001, dated 2005).

Structures can show the parent of a compound that is named as a salt. Some results are limits rather than exact numbers.

The target in this assay is recombinant HCV NS5B (HCV RNA-dependent RNA polymerase) (Hepatitis C virus genotype 1b, UniProt P26663). The experiment in a line: biochemical. The note with it: related polymerase activity (Example 27 list); read-out: IC50.
Chain of recombinant HCV NS5B (HCV RNA-dependent RNA polymerase) (P26663 2420-3010 limits assumed): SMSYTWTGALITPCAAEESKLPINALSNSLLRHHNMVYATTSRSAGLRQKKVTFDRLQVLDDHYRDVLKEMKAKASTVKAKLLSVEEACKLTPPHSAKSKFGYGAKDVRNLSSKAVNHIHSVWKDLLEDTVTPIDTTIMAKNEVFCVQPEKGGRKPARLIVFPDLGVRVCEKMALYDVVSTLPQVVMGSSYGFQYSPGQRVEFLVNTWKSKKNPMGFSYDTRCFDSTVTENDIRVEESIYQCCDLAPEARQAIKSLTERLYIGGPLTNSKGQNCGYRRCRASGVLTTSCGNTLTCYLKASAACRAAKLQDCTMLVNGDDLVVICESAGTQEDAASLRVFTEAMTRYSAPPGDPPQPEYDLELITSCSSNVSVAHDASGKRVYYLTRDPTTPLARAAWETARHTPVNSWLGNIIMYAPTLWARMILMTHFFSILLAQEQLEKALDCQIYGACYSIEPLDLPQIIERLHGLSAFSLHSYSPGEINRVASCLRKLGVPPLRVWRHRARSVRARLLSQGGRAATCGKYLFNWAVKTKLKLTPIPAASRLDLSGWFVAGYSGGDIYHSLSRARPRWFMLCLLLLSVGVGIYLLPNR

For the compound `O=C(O)c1sc(-c2ccccc2)cc1NS(=O)(=O)c1ccc(Cl)c(Cl)c1Cl` [Compound 153, 5-PHENYL-3-(2,3,4-TRICHLORO-BENZENESULFONYLAMINO)-THIOPHENE-2-CARBOXYLIC ACID], the IC50 – broadly, the concentration needed to halve the response being measured – is < 5 µM. In the case of `COC(=O)c1cc(S(=O)(=O)Nc2cc(-c3ccccc3)sc2C(=O)O)oc1C` [Compound 154, 5-(2-CARBOXY-5-PHENYL-THIOPHEN-3-YLSULFAMOYL)-2-METHYL-FURAN-3-CARBOXYLIC ACID METHYL ESTER], the IC50 was < 5 µM. The value for `CCOC(=O)c1c(S(=O)(=O)Nc2cc(-c3ccccc3)sc2C(=O)O)c(-c2ccccc2)n(-c2ccccc2)c1C` [Compound 155, 4-(2-CARBOXY-5-PHENYL-THIOPHEN-3-YLSULFAMOYL)-2-METHYL-1,5-DIPHENYL-1H-PYRROLE-3-CARBOXYLIC ACID ETHYL ESTER] was < 5 µM; that for `O=C(O)c1sc(-c2ccccc2)cc1NC(=O)N1CCN(c2cccc(C(F)(F)F)c2)CC1` [Compound 156, 5-PHENYL-3-{[4-(3-TRIFLUOROMETHYL-PHENYL)-PIPERAZINE-1-CARBONYL]-AMIN}-THIOPHENE-2-CARBOXYLIC ACID] was 5 to 20 µM; that for `O=C(O)c1sc(-c2ccccc2)cc1NC(=O)N1CCN(c2ccc(F)cc2)CC1` [Compound 157, 3-{[4-(4-FLUORO-PHENYL)-PIPERAZINE-1-CARBONYL]-AMINO}-5-PHENYL-THIOPHENE-2-CARBOXYLIC ACID] was > 20 µM. `Cc1cccc(C)c1N1CCN(C(=O)Nc2cc(-c3ccccc3)sc2C(=O)O)CC1` [Compound 158, 3-{[4-(2,6-DIMETHYL-PHENYL)-PIPERAZINE-1-CARBONYL]-AMINO}-5-PHENYL-THIOPHENE-2-CARBOXYLIC ACID]: the IC50 is > 20 µM. The same measure for `O=C(O)c1sc(-c2ccccc2)cc1NC(=O)N1CCN(c2ccccc2Cl)CC1` [Compound 159, 3-{[4-(2-CHLORO-PHENYL)-PIPERAZINE-1-CARBONYL]-AMINO}-5-PHENYL-THIOPHENE-2-CARBOXYLIC ACID]: 5 to 20 µM; for `O=C(O)c1sc(-c2ccccc2)cc1NC(=O)N1CCN(c2cccc(Cl)c2)CC1` [Compound 160, 3-{[4-(3-CHLORO-PHENYL)-PIPERAZINE-1-CARBONYL]-AMINO}-5-PHENYL-THIOPHENE-2-CARBOXYLIC ACID]: 5 to 20 µM; for `Cc1ccccc1S(=O)(=O)Nc1cc(-c2cc(NS(=O)(=O)c3ccccc3C)c(C(=O)O)s2)sc1C(=O)O` [Compound 161, 4,4′-BIS-(TOLUENE-2-SULFONYLAMINO)-[2,2′]BITHIOPHENYL-5,5′-DICARBOXYLIC ACID]: < 5 µM.

On to `C=CCN(C(=O)c1ccc(C)cc1)c1cc(-c2ccccc2)sc1C(=O)O` [Compound 162, 3-[ALLYL-(4-METHYL-BENZOYL)-AMINO]-5-PHENYL-THIOPHENE-2-CARBOXYLIC ACID], for which the half-maximal inhibitory concentration (IC50) is < 5 µM. The same measure for `Cc1ccccc1S(=O)(=O)Nc1cc(-c2cnn(S(=O)(=O)N(C)C)c2)sc1C(=O)O` [Compound 163, 5-(1-DIMETHYLSULFAMOYL-1H-PYRAZOL-4-YL)-3-(TOLUENE-2-SULFONYLAMINO)-THIOPHENE-2-CARBOXYLIC ACID]: 5 to 20 µM; for `Cc1ccccc1S(=O)(=O)Nc1cc(-c2cccc(N)c2)sc1C(=O)O` [Compound 164, 5-(3-AMINO-PHENYL)-3-(TOLUENE-2-SULFONYLAMINO)-THIOPHENE-2-CARBOXYLIC ACID]: 5 to 20 µM; for `Cc1ccccc1S(=O)(=O)Nc1cc(-c2ccc(N)cc2)sc1C(=O)O` [Compound 165, 5-(4-AMINO-PHENYL)-3-(TOLUENE-2-SULFONYLAMINO)-THIOPHENE-2-CARBOXYLIC ACID]: 5 to 20 µM. The same measure for `CC(=O)c1ccc(-c2cc(NS(=O)(=O)c3ccccc3C)c(C(=O)O)s2)cc1` [Compound 166, 5-(4-ACETYL-PHENYL)-3-(TOLUENE-2-SULFONYLAMINO)-THIOPHENE-2-CARBOXYLIC ACID]: < 5 µM. The same measure for `CCOC(=O)c1c(C)[nH]c(C)c1S(=O)(=O)Nc1cc(-c2ccccc2)sc1C(=O)O` [Compound 167, 4-(2-CARBOXY-5-PHENYL-THIOPHEN-3-YLSULFAMOYL)-2,5-DIMETHYL-1H-PYRROLE-3-CARBOXYLIC ACID ETHYL ESTER]: 5 to 20 µM; for `CCOC(=O)c1c(C)c(S(=O)(=O)Nc2cc(-c3ccccc3)sc2C(=O)O)c(-c2ccc(Cl)cc2)n1-c1ccccc1` [Compound 168, 4-(2-CARBOXY-5-PHENYL-THIOPHEN-3-YLSULFAMOYL)-5-(4-CHLORO-PHENYL)-3-METHYL-1-PHENYL-1H-PYRROLE-2-CARBOXYLIC ACID ETHYL ESTER]: 5 to 20 µM; for `O=C(O)c1sc(-c2ccccc2)cc1NS(=O)(=O)c1cc(Cl)c(O)c(Cl)c1` [Compound 169, 3-(3,5-DICHLORO-4-HYDROXY-BENZENESULFONYLAMINO)-5-PHENYL-THIOPHENE-2-CARBOXYLIC ACID]: 5 to 20 µM. For the compound `Cc1ccccc1S(=O)(=O)Nc1cc(-c2cn[nH]c2)sc1C(=O)O` [Compound 170, 5-(1H-PYRAZOL-4-YL)-3-(TOLUENE-2-SULFONYLAMINO)-THIOPHENE-2-CARBOXYLIC ACID], the IC50 is < 5 µM. The same measure for `Cc1ccccc1S(=O)(=O)Nc1cc(-c2cccc(O)c2)sc1C(=O)O` [Compound 171, 5-(3-HYDROXY-PHENYL)-3-(TOLUENE-2-SULFONYLAMINO)-THIOPHENE-2-CARBOXYLIC ACID]: < 5 µM. As for `CC(C)CC(=O)N(C)c1cc(-c2ccccc2)sc1C(=O)O` [Compound 172, 3-[METHYL-(3-METHYL-BUTYRYL)-AMINO]-5-PHENYL-THIOPHENE-2-CARBOXYLIC ACID], the IC50 was < 5 µM. Regarding `CN(C(=O)Cc1ccc(F)cc1)c1cc(-c2ccccc2)sc1C(=O)O` [Compound 173, 3-{[2-(4-FLUORO-PHENYL)-ACETYL]-METHYL-AMINO}-5-PHENYL-THIOPHENE-2-CARBOXYLIC ACID], the IC50 is < 5 µM. The same measure for `CCCCCc1ccc(S(=O)(=O)Nc2cc(-c3ccccc3)sc2C(=O)O)cc1` [Compound 174, 3-(4-PENTYL-BENZENESULFONYLAMINO)-5-PHENYL-THIOPHENE-2-CARBOXYLIC ACID]: 5 to 20 µM; for `CN(C(=O)Cc1ccccc1)c1cc(-c2ccccc2)sc1C(=O)O` [Compound 175, 3-(METHYL-PHENYLACETYL-AMINO)-5-PHENYL-THIOPHENE-2-CARBOXYLIC ACID]: < 5 µM.

Take `O=C(O)c1sc(-c2ccccc2)cc1NS(=O)(=O)c1cc(OCC(F)(F)F)ccc1OCC(F)(F)F` [Compound 176, 3-[2,5-BIS-(2,2,2-TRIFLUORO-ETHOXY)-BENZENESULFONYLAMINO]-5-PHENYL-THIOPHENE-2-CARBOXYLIC ACID]: the IC50 is 5 to 20 µM. The value for `Cc1ccc(S(=O)(=O)Nc2cc(-c3ccccc3)sc2C(=O)O)c([N+](=O)[O-])c1` [Compound 177, 3-(4-METHYL-2-NITRO-BENZENESULFONYLAMINO)-5-PHENYL-THIOPHENE-2-CARBOXYLIC ACID] was 5 to 20 µM; that for `Cc1ccccc1S(=O)(=O)Nc1cc(-c2nccs2)sc1C(=O)O` [Compound 178, 5-THIAZOL-2-YL-3-(TOLUENE-2-SULFONYLAMINO)-THIOPHENE-2-CARBOXYLIC ACID] was < 5 µM. As to `O=C(NCCCc1ccccc1)Nc1cc(-c2ccccc2)sc1C(=O)O` [Compound 179, 5-PHENYL-3-[3-(3-PHENYL-PROPYL)-UREIDO]-THIOPHENE-2-CARBOXYLIC ACID], the IC50 was 5 to 20 µM. The value for `O=C(O)c1sc(-c2ccccc2)cc1NC(=O)N1CCc2ccccc2C1` [Compound 180, 3-[(3,4-DIHYDRO-1H-ISOQUINOLINE-2-CARBONYL)-AMINO]-5-PHENYL-THIOPHENE-2-CARBOXYLIC ACID] was 5 to 20 µM; that for `COc1ccc(N2CCN(C(=O)Nc3cc(-c4ccccc4)sc3C(=O)O)CC2)cc1` [Compound 181, 3-{[4-(4-METHOXY-PHENYL)-PIPERAZINE-1-CARBONYL]-AMINO}-5-PHENYL-THIOPHENE-2-CARBOXYLIC ACID] was 5 to 20 µM; that for `Cc1cccc(N2CCN(C(=O)Nc3cc(-c4ccccc4)sc3C(=O)O)CC2)n1` [Compound 182, 3-{[4-(6-METHYL-PYRIDIN-2-YL)-PIPERAZINE-1-CARBONYL]-AMINO}-5-PHENYL-THIOPHENE-2-CARBOXYLIC ACID HYDROCHLORIDE] was 5 to 20 µM. The value for `O=C(O)c1sc(-c2ccccc2)cc1NC(=O)N1CCN(Cc2ccc(Cl)cc2)CC1` [Compound 183, 3-{[4-(4-CHLORO-BENZYL)-PIPERAZINE-1-CARBONYL]-AMINO}-5-PHENYL-THIOPHENE-2-CARBOXYLIC ACID HYDROCHLORIDE] was 5 to 20 µM; that for `Cc1ccc(-c2cc(NS(=O)(=O)c3ccccc3C)c(C(=O)O)s2)nc1` [Compound 184, 5-(5-METHYL-PYRIDIN-2-YL)-3-(TOLUENE-2-SULFONYLAMINO)-THIOPHENE-2-CARBOXYLIC ACID] was < 5 µM. The value for `CCN(C(=O)c1ccc(C)cc1)c1cc(-c2ccccc2)sc1C(=O)O` [Compound 185, 3-[ETHYL-(4-METHYL-BENZOYL)-AMINO]-5-PHENYL-THIOPHENE-2-CARBOXYLIC ACID] was < 5 µM; that for `CN(C(=O)c1sccc1Cl)c1cc(-c2ccccc2)sc1C(=O)O` [Compound 186, 3-[(3-CHLORO-THIOPHENE-2-CARBONYL)-METHYL-AMINO]-5-PHENYL-THIOPHENE-2-CARBOXYLIC ACID] was 5 to 20 µM. Turning to `CN(C(=O)c1ccccc1Br)c1cc(-c2ccccc2)sc1C(=O)O` [Compound 187, 3-[(2-BROMO-BENZOYL)-METHYL-AMINO]-5-PHENYL-THIOPHENE-2-CARBOXYLIC ACID], the IC50 lay in the range of 5 to 20 µM. Turning to `CCCCc1ccc(C(=O)N(C)c2cc(-c3ccccc3)sc2C(=O)O)cc1` [Compound 188, 3-[(4-BUTYL-BENZOYL)-METHYL-AMINO]-5-PHENYL-THIOPHENE-2-CARBOXYLIC ACID], the IC50 was > 20 µM.

Consider `O=C(O)c1sc(-c2ccccc2)cc1NS(=O)(=O)c1ccccc1CCl` [Compound 189, 3-(2-CHLOROMETHYL-BENZENESULFONYLAMINO)-5-PHENYL-THIOPHENE-2-CARBOXYLIC ACID], for which the IC50 was 5 to 20 µM. The value for `Cc1ccccc1S(=O)(=O)Nc1cc(-c2ccc(O)cc2)sc1C(=O)O` [Compound 190, 5-(4-HYDROXY-PHENYL)-3-(TOLUENE-2-SULFONYLAMINO)-THIOPHENE-2-CARBOXYLIC ACID] was < 5 µM.
